The values below come from US20110159095A1, “TREATMENT OF ADRENAL INSUFFICIENCY” (priority 2008, published 2011).

This experiment has as its system HPA axis. Put plainly: Plasma ACTH in dexamethasone-suppressed healthy subjects. In kind it is in vivo, human. The settings on record: 1 mg oral dexamethasone repeated; confirms suppression of HPA axis.

Description: Plasma ACTH levels were taken at 2155 h on Day 1 and on 0600 h on Day 2 whilst serum cortisol levels were taken prior to ingestion of the drug and were repeated every 30 minutes for the first four hours, then at 0200 h, 0300 h, 0400 h, 0500 h, 0600 h, 0800 h, 1000 h, 1300 h, 1600 h, 2200 h.
Assays: Serum cortisol was measured using the Bayer Advia Centaur Automated Immunoassay System. The inter-assay coefficient variation was 7% at 200 nmol/l (7.2 μg/dl), and 8% at 1,050 nmol/l (38 μg/dl). Plasma ACTH was measured using the DPC Immulite 2000 assay. Plasma 17OH-progesterone was measured using Liquid Chromatography Tandem Mass Spectrometry at Quest Diagnostics (Nichols Institute, San Juan Capistrano, Calif., USA) with an inter-assay coefficient of variation of 8.2%.

For `C[C@@H]1C[C@H]2[C@@H]3CCC4=CC(=O)C=C[C@]4(C)[C@@]3(F)[C@@H](O)C[C@]2(C)[C@@]1(O)C(=O)CO` [dexamethasone], the “ACTH values below the assay lower limit” value is recorded as 98%.
